From publication PMC9950073, “Alleviation of arthritis through prevention of neutrophil extracellular traps by an orally available inhibitor of protein arginine deiminase 4” (Scientific Reports, 2023)

What was measured:
[1] = Microsomal stability, HLM; type: in vitro ADME, human; conditions: 1 µM, liver microsomes 0.5 mg/mL; one range given for HLM/MLM/DLM/RLM
Description: (§1) Microsomal stability: Liver microsomes (0.5 mg/mL) from different species were incubated with JBI-589 (1 µM) with or without NADPH (1 mM) at 37 °C for 30 min in potassium phosphate buffer (pH 7.4) and then reaction was stopped with quenching solution (0.5% Formic acid in internal standard (IS) containing ACN). Resulting samples were centrifuged and supernatant was taken for LC–MS/MS analysis. Percent metabolism was calculated as follows: % Metabolized: [1 − (test area ratio/control area ratio)] *100.

human neutrophils = assay: Cell Titer Glo viability assay, neutrophils; type: cell-based; conditions: 24 h, up to 10 µM
Description: All blood samples from healthy donors who participated in this study were obtained after informed consent in accordance with relevant guidelines and regulations given by the ACE Independent ethics committee for Jubilant Biosys Ltd and Office of Clinical Investigations at Boston Children’s Hospital. The ACE Independent ethics committee, Bangalore, approved the use of human whole blood/PBMC/Enriched Subset in Jubilant Biosys Ltd investigations, Drug Controller General of India (DCGI) Reg No. ECR/141/Indt/KA/2013. Briefly, 10 mL K2EDTA vacutainers were used to collect fresh blood from healthy donors (BD vacutainer, Catalog No: BD 367525). A total of 50 ml of blood was taken from a single, healthy human donor. Neutrophils were isolated from human blood using the EasySep Direct Human Neutrophil Isolation Kit, according to the manufacturer's instructions (Stem Cell Technology, Catalog No: 19666). For investigations conducted at Boston Children’s Hospital, experimental procedure was approved by the Office of Clinical Investigations at Boston Children’s Hospital (protocol number IRB-P00003283). […]
The CellTiter-Glo luminescent cell viability assay was performed on neutrophils/peripheral blood mononuclear cells according to the manufacturer’s instructions (Promega, catalog number: G7570)[35]. […] Luminescence was recorded with Perkin Elmer envision 2103 multilabel reader.

[2] = Microsomal stability, RLM; type: in vitro ADME, rat; conditions: 1 µM, liver microsomes 0.5 mg/mL; one range given for HLM/MLM/DLM/RLM
Description: as §1

[3] = Microsomal stability, DLM; type: in vitro ADME, dog; conditions: 1 µM, liver microsomes 0.5 mg/mL; one range given for HLM/MLM/DLM/RLM
Description: as §1

mouse neutrophils = assay: In vitro NET assay, mouse neutrophils; type: cell-based; conditions: pretreatment 10 μM for 15 min, ionomycin 4 µM 4 h
Description: Mouse peripheral blood was collected by retro-orbital puncture in ethylenediaminetetraacetic acid (EDTA) anticoagulated buffer supplemented with 1% endotoxin-free BSA in sterile PBS. Neutrophils were isolated by Percoll gradient centrifugation as described previously. The purity of neutrophils was more than 90% as confirmed by the Wright-Giemsa stain.
Mouse or human neutrophils were resuspended in HEPES-supplemented phenol red-free RPMI1640 medium and 1.5 × 10^4 cells were seeded per well in a 96-well plate. After incubating for 20 min at 37 °C and 5% CO2, the cells were stimulated with vehicle control or ionomycin (Sigma, Catalog No: I24222) (4 µM) for 4 h. Neutrophils were fixed with 4% paraformaldehyde (PFA), washed and permeabilized (0.1% Triton X-100, 0.1% sodium citrate) for 10 min at 4 °C. Subsequently, neutrophils were incubated with blocking buffer (2.5% BSA, 0.5% Tween-20 in 1 × PBS) at room temperature for an hour followed by overnight incubation with the primary antibody against citrullinated histone H4 (H4Cit, 1:250, catalog number: 07-596, Millipore, Burlington, MA). […] Images were obtained with a Zeiss Axiovert 200 M wide-field fluorescence microscope (Zeiss, Oberkochen, Germany) with the Zeiss AxioVision software. The percentages of H4Cit positive neutrophils and neutrophil extracellular traps (NETs) were calculated by quantifying more than 200 randomly selected cells. […]

- HLM % metabolized @ 30 min [1]: 25-50%
- RLM % metabolized @ 30 min [2]: 25-50%
- DLM % metabolized @ 30 min [3]: 25-50%
SMILES: Cc1c(-c2cc3ccccc3n2Cc2ccc(F)cc2)nc2cc(C(=O)N3CCC[C@@H](N)C3)ccn12 [JBI-589, (R)-(3-aminopiperidin-1-yl)(2-(1-(4-fluorobenzyl)-1H-indol-2-yl)-3-methylimidazo[1,2-a]pyridin-7-yl)methanone]
- viability of neutrophils (human neutrophils): minimal or no changes
- H4Cit positivity (mouse neutrophils): markedly diminished
- NET formation (mouse neutrophils): markedly diminished
